Experimental data from patent US8933089B2, “HIV inhibiting 5-amido substituted pyrimidines” (Janssen R & D Ireland, priority 2006, dated 2015).

Key:
[1] = system: HIV strain IIIB (wild type); experiment: Cellular anti-HIV assay in MT4 LTR-EGFP cells, strain IIIB (wild type); selectivity index versus cytotoxicity in mock-infected MT4 CMV-EGFP cells; assay type: cell-based, HIV-1; details: for EC50: Human immunodeficiency virus 1, 72 h, wild type HIV strain IIIB, MT4 LTR-EGFP cells, fluorescence, three days after infection, read-out: IIIB pEC50 (converted); for IIIB pSi: selectivity index = ratio of CC50 (mock-infected MT4 CMV-EGFP cells) to EC50 (IIIB), given as p value
Method: (§1) The antiviral activity of the compound of the present invention has been evaluated in the presence of wild type HIV and HIV mutants bearing mutations at the reverse transcriptase gene. The activity of the compounds is evaluated using a cellular assay which was performed according to the following procedure.
(§2) The human T-cell line MT4 is engineered with Green Fluorescent Protein (GFP) and an HIV-specific promoter, HIV-1 long terminal repeat (LTR). This cell line is designated MT4 LTR-EGFP, and can be used for the in vitro evaluation of anti-HIV activity of investigational compounds. In HIV-1 infected cells, the Tat protein is produced which upregulates the LTR promotor and finally leads to stimulation of the GFP reporter production, allowing to measure ongoing HIV-infection fluorometrically. Analogously, MT4 cells are engineered with GFP and the constitutional cytomegalovirus (CMV) promotor. This cell line is designated MT4 CMV-EGFP, and can be used for the in vitro evaluation of cytotoxicity of investigational compounds. In this cell line, GFP levels are comparably to those of infected MT4 LTR-EGFP cells. Cytotoxic investigational compounds reduce GFP levels of mock-infected MT4 CMV-EGFP cells.
(§3) Effective concentration values such as 50% effective concentration (EC50) can be determined and are usually expressed in μM. An EC50 value is defined as the concentration of test compound that reduces the fluorescence of HIV-infected cells by 50%. The 50% cytotoxic concentration (CC50 in μM) is defined as the concentration of test compound that reduces fluorescence of the mock-infected cells by 50%. The ratio of CC50 to EC50 is defined as the selectivity index (SI) and is an indication of the selectivity of the anti-HIV activity of the inhibitor. The ultimate monitoring of HIV-1 infection and cytotoxicity is done using a scanning microscope. Image analysis allows very sensitive detection of viral infection. Measurements are done before cell necrosis, which usually takes place about five days after infection, in particular measurements are performed three days after infection.
(§4) The columns IIIB, L100I, etc. in the table list the pEC50 values against various strains IIIB, L100I, etc.
Strain IIIB is wild type HIV strain

HIV strain L100I + K103N = experiment: Cellular anti-HIV assay in MT4 LTR-EGFP cells, mutant L100I + K103N; assay type: cell-based, HIV-1; details: Human immunodeficiency virus 1, 72 h, read-out: L100I + K103N pEC50 (converted)
Method: (§5) Because of the increasing emergence of drug resistant HIV strains, the present compounds were tested for their potency against clinically isolated HIV strains harbouring several mutations. These mutations are associated with resistance to reverse transcriptase inhibitors and result in viruses that show various degrees of phenotypic cross-resistance to the currently commercially available drugs such as for instance AZT and delavirdine.
as §1, §2, §3, §4

HIV strain K103N + Y181C = experiment: Cellular anti-HIV assay in MT4 LTR-EGFP cells, mutant K103N + Y181C; assay type: cell-based, HIV-1; details: Human immunodeficiency virus 1, 72 h, read-out: K103N + Y181C pEC50 (converted)
Method: as §5, §1, §2, §3, §4

HIV strain MDR = experiment: Cellular anti-HIV assay in MT4 LTR-EGFP cells, MDR strain; assay type: cell-based, HIV-1; details: Human immunodeficiency virus 1, read-out: MDR pEC50 (converted)
Method: as §5, §1, §2, §3, §4
MDR refers to a strain that contains mutations L100I, K103N, Y181C, E138G, V1791, L2214F, V278V/I and A327A/V in HIV reverse transcriptase.

HIV strain L100I = experiment: Cellular anti-HIV assay in MT4 LTR-EGFP cells, mutant L100I; assay type: cell-based, HIV-1; details: Human immunodeficiency virus 1, read-out: L100I pEC50 (converted)
Method: as §5, §1, §2, §3, §4

HIV strain Y188L = experiment: Cellular anti-HIV assay in MT4 LTR-EGFP cells, mutant Y188L; assay type: cell-based, HIV-1; details: Human immunodeficiency virus 1, read-out: Y188L pEC50 (converted)
Method: as §5, §1, §2, §3, §4

HIV strain Y181C = experiment: Cellular anti-HIV assay in MT4 LTR-EGFP cells, mutant Y181C; assay type: cell-based, HIV-1; details: Human immunodeficiency virus 1, read-out: Y181C pEC50 (converted)
Method: as §5, §1, §2, §3, §4

HIV strain K103N = experiment: Cellular anti-HIV assay in MT4 LTR-EGFP cells, mutant K103N; assay type: cell-based, HIV-1; details: Human immunodeficiency virus 1, read-out: K103N pEC50 (converted)
Method: as §5, §1, §2, §3, §4

| Compound | melting point | EC50 [1] | IIIB pSi [1] | EC50 (HIV strain L100I + K103N) | EC50 (HIV strain K103N + Y181C) | EC50 (HIV strain MDR) | EC50 (HIV strain L100I) | EC50 (HIV strain Y188L) | EC50 (HIV strain Y181C) | EC50 (HIV strain K103N) |
| --- | --- | --- | --- | --- | --- | --- | --- | --- | --- | --- |
| Cc1cc(/C=C/C#N)cc(C)c1Nc1nc(Nc2ccc(C#N)cc2)ncc1C(=O)N1CCOCC1 | > 250 °C |  |  |  |  |  |  |  |  |  |
| COc1ccccc1NC(=O)c1cnc(Nc2ccc(C#N)cc2)nc1Nc1c(C)cc(/C=C/C#N)cc1C | > 250 °C |  |  |  |  |  |  |  |  |  |
| Cc1cc(/C=C/C#N)cc(C)c1Nc1nc(Nc2ccc(C#N)cc2)ncc1C(=O)NCCO [Compound 53] | > 250 °C | 0.00316 µM | >3.90 | 0.0251 µM | 0.0316 µM | 0.501 µM | 0.00501 µM | 0.0316 µM | 0.02 µM | 0.00631 µM |
| COCCNC(=O)c1cnc(Nc2ccc(C#N)cc2)nc1Nc1c(C)cc(/C=C/C#N)cc1C [Compound 54] | > 250 °C | 0.00251 µM | >4.00 | 0.0158 µM | 0.0126 µM | 1 µM | 0.00398 µM | 0.01 µM | 0.01 µM | 0.002 µM |
| CCN(CCO)C(=O)c1cnc(Nc2ccc(C#N)cc2)nc1Nc1c(C)cc(/C=C/C#N)cc1C [Compound 55] | > 222 °C | 0.001 µM | 4.00 | 0.0794 µM | 0.1 µM | 2 µM | 0.0158 µM | 0.0631 µM | 0.02 µM | 0.00398 µM |
| CONC(=O)c1cnc(Nc2ccc(C#N)cc2)nc1Oc1c(C)cc(/C=C/C#N)cc1C [Compound 62] |  | 0.00158 µM | 4.00 | 0.0398 µM | 0.0316 µM | 3.16 µM | 0.00501 µM | 0.0398 µM | 0.02 µM | 0.00251 µM |
